PubChem BioAssay (NCI)
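Method: 48-hour compound exposure of cells in 96-well plates, five concentrations, linear interpolation of endpoints. TGI: concentration producing complete growth inhibition.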

Assays:
Test in all cases: NCI-60 cell line screen, 48 h
IGROV1 ovarian = tested on: IGROV1 ovarian
DMS 273 small cell lung = tested on: DMS 273 small cell lung
SK-MEL-5 melanoma = tested on: SK-MEL-5 melanoma
CAKI-1 renal = tested on: CAKI-1 renal
SNB-75 CNS = tested on: SNB-75 CNS
HT29 colon = tested on: HT29 colon
HCT-116 colon = tested on: HCT-116 colon
MALME-3M melanoma = tested on: MALME-3M melanoma
SNB-78 CNS = tested on: SNB-78 CNS
SK-MEL-2 melanoma = tested on: SK-MEL-2 melanoma
HL-60(TB) leukemia = tested on: HL-60(TB) leukemia
CCRF-CEM leukemia = tested on: CCRF-CEM leukemia
A498 renal = tested on: A498 renal
OVCAR-4 ovarian = tested on: OVCAR-4 ovarian
786-0 renal = tested on: 786-0 renal
HCC-2998 colon = tested on: HCC-2998 colon
NCI-H23 lung = tested on: NCI-H23 lung
M14 melanoma = tested on: M14 melanoma
HCT-15 colon = tested on: HCT-15 colon
SNB-19 CNS = tested on: SNB-19 CNS
KM12 colon = tested on: KM12 colon
NCI-H522 lung = tested on: NCI-H522 lung
RXF 393 renal = tested on: RXF 393 renal
U251 CNS = tested on: U251 CNS
M19-MEL melanoma = tested on: M19-MEL melanoma
UACC-62 melanoma = tested on: UACC-62 melanoma
NCI-H226 lung = tested on: NCI-H226 lung
MOLT-4 leukemia = tested on: MOLT-4 leukemia
SK-MEL-28 melanoma = tested on: SK-MEL-28 melanoma
KM20L2 colon = tested on: KM20L2 colon
OVCAR-8 ovarian = tested on: OVCAR-8 ovarian
HOP-18 NSCLC = tested on: HOP-18 NSCLC
SF-268 CNS = tested on: SF-268 CNS
HOP-92 NSCLC = tested on: HOP-92 NSCLC
LXFL 529 NSCLC = tested on: LXFL 529 NSCLC
TK-10 renal = tested on: TK-10 renal
UACC-257 melanoma = tested on: UACC-257 melanoma
UO-31 renal = tested on: UO-31 renal
A549 NSCLC = tested on: A549 NSCLC
NCI-H460 lung = tested on: NCI-H460 lung
SN12C renal = tested on: SN12C renal
SR leukemia = tested on: SR leukemia
COLO 205 colon = tested on: COLO 205 colon
XF 498 CNS = tested on: XF 498 CNS
EKVX NSCLC = tested on: EKVX NSCLC
OVCAR-3 ovarian = tested on: OVCAR-3 ovarian
DMS 114 small cell lung = tested on: DMS 114 small cell lung
K-562 leukemia = tested on: K-562 leukemia
SW-620 colon = tested on: SW-620 colon
ACHN renal = tested on: ACHN renal
T-47D breast = tested on: T-47D breast
SF-539 CNS = tested on: SF-539 CNS
HOP-62 NSCLC = tested on: HOP-62 NSCLC
SF-295 CNS = tested on: SF-295 CNS
RPMI-8226 leukemia = tested on: RPMI-8226 leukemia
PC-3 prostate = tested on: PC-3 prostate
OVCAR-5 ovarian = tested on: OVCAR-5 ovarian
LOX IMVI melanoma = tested on: LOX IMVI melanoma
DU-145 prostate = tested on: DU-145 prostate
MCF7 breast = tested on: MCF7 breast
BT-549 breast = tested on: BT-549 breast
MDA-MB-231 breast = tested on: MDA-MB-231 breast
HS 578T breast = tested on: HS 578T breast

`Cc1cc(OCC(O)CO)ccc1-c1ccccc1` (stereo unspecified) was tested, and the TGI (IGROV1 ovarian) was greater than 100 µM, the TGI (DMS 273 small cell lung) was greater than 100 µM and the TGI (SK-MEL-5 melanoma) was greater than 100 µM. It also gave a TGI (CAKI-1 renal) greater than 100 µM, a TGI (SNB-75 CNS) greater than 100 µM and a TGI (HT29 colon) greater than 100 µM. The TGI (HCT-116 colon) was greater than 100 µM, the TGI (MALME-3M melanoma) was greater than 100 µM and the TGI (SNB-78 CNS) was greater than 100 µM. The TGI (SK-MEL-2 melanoma) was greater than 100 µM, the TGI (HL-60(TB) leukemia) was greater than 100 µM and the TGI (CCRF-CEM leukemia) was greater than 100 µM. It also gave a TGI (A498 renal) of 80.4 µM, a TGI (OVCAR-4 ovarian) greater than 100 µM and a TGI (786-0 renal) greater than 100 µM. It also gave a TGI (HCC-2998 colon) greater than 100 µM, a TGI (NCI-H23 lung) greater than 100 µM and a TGI (M14 melanoma) greater than 100 µM. It also gave a TGI (HCT-15 colon) greater than 100 µM, a TGI (SNB-19 CNS) greater than 100 µM and a TGI (KM12 colon) greater than 100 µM. For the same compound, the TGI (NCI-H522 lung) was greater than 100 µM, the TGI (RXF 393 renal) was 87.1 µM and the TGI (U251 CNS) was greater than 100 µM. The TGI (M19-MEL melanoma) was greater than 100 µM, the TGI (UACC-62 melanoma) was greater than 100 µM and the TGI (NCI-H226 lung) was greater than 100 µM. It also gave a TGI (MOLT-4 leukemia) greater than 100 µM, a TGI (SK-MEL-28 melanoma) greater than 100 µM and a TGI (KM20L2 colon) greater than 100 µM. For the same compound, the TGI (OVCAR-8 ovarian) was greater than 100 µM, the TGI (HOP-18 NSCLC) was greater than 100 µM and the TGI (SF-268 CNS) was greater than 100 µM. It also gave a TGI (HOP-92 NSCLC) greater than 100 µM, a TGI (LXFL 529 NSCLC) greater than 100 µM and a TGI (TK-10 renal) greater than 100 µM. The TGI (UACC-257 melanoma) was greater than 100 µM, the TGI (UO-31 renal) was greater than 100 µM and the TGI (A549 NSCLC) was greater than 100 µM. For the same compound, the TGI (NCI-H460 lung) was greater than 100 µM, the TGI (SN12C renal) was greater than 100 µM and the TGI (SR leukemia) was greater than 100 µM. It also gave a TGI (COLO 205 colon) greater than 100 µM, a TGI (XF 498 CNS) greater than 100 µM and a TGI (EKVX NSCLC) greater than 100 µM. The TGI (OVCAR-3 ovarian) was greater than 100 µM, the TGI (DMS 114 small cell lung) was greater than 100 µM and the TGI (K-562 leukemia) was greater than 100 µM. It also gave a TGI (SW-620 colon) of 23.7 µM and a TGI (ACHN renal) greater than 100 µM.
`COc1cc2c(c(OC)c1OC)-c1cccc(=O)cc1C(NC(C)=O)CC2` (stereo unspecified) was tested, and the TGI (T-47D breast) was greater than 100 µM, the TGI (IGROV1 ovarian) was greater than 100 µM and the TGI (DMS 273 small cell lung) was greater than 100 µM. For the same compound, the TGI (SF-539 CNS) was 0.229 µM, the TGI (SK-MEL-5 melanoma) was 3.16 µM and the TGI (HOP-62 NSCLC) was greater than 39.6 µM. The TGI (CAKI-1 renal) was greater than 100 µM, the TGI (HCT-116 colon) was 25.6 µM and the TGI (MALME-3M melanoma) was greater than 100 µM. For the same compound, the TGI (SNB-78 CNS) was greater than 100 µM, the TGI (SF-295 CNS) was 0.267 µM and the TGI (SK-MEL-2 melanoma) was greater than 24.8 µM. It also gave a TGI (HL-60(TB) leukemia) of 0.472 µM, a TGI (CCRF-CEM leukemia) greater than 100 µM and a TGI (A498 renal) of 14.7 µM. It also gave a TGI (OVCAR-4 ovarian) greater than 100 µM, a TGI (786-0 renal) greater than 63.1 µM and a TGI (HCC-2998 colon) greater than 13.6 µM. It also gave a TGI (RPMI-8226 leukemia) greater than 100 µM, a TGI (NCI-H23 lung) of 11.1 µM and a TGI (M14 melanoma) greater than 67.8 µM. For the same compound, the TGI (HCT-15 colon) was greater than 100 µM, the TGI (SNB-19 CNS) was greater than 100 µM and the TGI (PC-3 prostate) was greater than 100 µM. The TGI (KM12 colon) was 1.75 µM, the TGI (NCI-H522 lung) was 0.203 µM and the TGI (RXF 393 renal) was 0.952 µM. For the same compound, the TGI (OVCAR-5 ovarian) was greater than 100 µM, the TGI (LOX IMVI melanoma) was greater than 100 µM and the TGI (U251 CNS) was greater than 100 µM. It also gave a TGI (M19-MEL melanoma) greater than 100 µM, a TGI (UACC-62 melanoma) greater than 100 µM and a TGI (NCI-H226 lung) of 14.8 µM. For the same compound, the TGI (MOLT-4 leukemia) was greater than 100 µM, the TGI (SK-MEL-28 melanoma) was greater than 100 µM and the TGI (DU-145 prostate) was greater than 100 µM. It also gave a TGI (MCF7 breast) greater than 100 µM, a TGI (KM20L2 colon) of 1.86 µM and a TGI (OVCAR-8 ovarian) greater than 16.7 µM. For the same compound, the TGI (HOP-18 NSCLC) was greater than 100 µM, the TGI (SF-268 CNS) was greater than 100 µM and the TGI (HOP-92 NSCLC) was 4.92 µM. For the same compound, the TGI (LXFL 529 NSCLC) was greater than 100 µM, the TGI (TK-10 renal) was greater than 100 µM and the TGI (BT-549 breast) was greater than 100 µM. It also gave a TGI (UACC-257 melanoma) greater than 100 µM, a TGI (UO-31 renal) greater than 100 µM and a TGI (A549 NSCLC) greater than 100 µM. The TGI (NCI-H460 lung) was 3.47 µM, the TGI (MDA-MB-231 breast) was greater than 100 µM and the TGI (SN12C renal) was greater than 100 µM. The TGI (HS 578T breast) was greater than 100 µM, the TGI (SR leukemia) was greater than 100 µM and the TGI (COLO 205 colon) was 1.79 µM. For the same compound, the TGI (XF 498 CNS) was 12.3 µM, the TGI (EKVX NSCLC) was greater than 100 µM and the TGI (OVCAR-3 ovarian) was 1.16 µM. The TGI (DMS 114 small cell lung) was 0.391 µM, the TGI (K-562 leukemia) was greater than 100 µM and the TGI (SW-620 colon) was greater than 100 µM. The TGI (ACHN renal) was greater than 100 µM.
